Measurements reported in patent US20130005760A1, “HETEROCYCLIC COMPOUND HAVING AZOLE GROUP” (Toyama Chemical Co., Ltd., priority 2010, published 2013).

Assays:
[1] = test system: HIV-1 (JRCSF); test: Anti-HIV activity (Test Example 1-1): MaRBLE cells infected with HIV-1 (JRCSF), compound added 2 h after seeding, luciferase readout after 7 days; assay type: cell-based; conditions: Human immunodeficiency virus 1, 168 h, 7 days culture, firefly luciferase, virus growth rate, 4 parameter Logistic Model (XLfit 4)
Experimental: (§1) This example was carried out by reference to Journal of Clinical Microbiology, 2007, Vol. 45, pages 477 to 487.
(§2) An anti-HIV activity was evaluated using MaRBLE cells obtained by transfection of HPB-M(a) derived from human T-lymphocytes with a luciferase gene of which expressions were regulated by HIV-1 LTR and a CCR5 gene etc.
The MaRBLE cells were suspended in RPMI1640 containing 10% FCS (fetal calf serum) and penicillin/streptomycin. After infected with HIV-1 (JRCSF), the cells were seeded on a 96-well plate (1×10^5 cells/well). As a control group, the same number of uninfected cells were seeded.
After incubating the plate under the condition of 37° C. and 5% CO2 for 2 hours, a fresh culture medium or a culture medium containing an appropriately diluted test compound was added to each well.
After further culturing at 37° C. under 5% CO2 for 7 days, an intracellular luciferase activity was measured using Dual-Glo Luciferase assay system (Promega).
(§3) The virus growth rate was calculated by the following equation.
(§4) Virus growth rate (%)=(A/B)×100
(§5) A=(Firefly luciferase activity in the well with the compound)−(Firefly luciferase activity of uninfected cells)
(§6) B=(Firefly luciferase activity in the well without the compound)−(Firefly luciferase activity of uninfected cells)
The IC50 of the compound was calculated by applying virus growth rates of various concentrations to 4 parameter Logistic Model of curve-fitting software XLfit 4.

[2] = Pharmacokinetic study in mice (oral administration); assay type: in vivo; conditions: mouse, serum, 25 mg/kg, male ICR mice, suspension in 0.5% methylcellulose 2.5 mg/mL at 10 mL/kg, 12 hours after administration, HPLC, read-out: serum concentration of the test compound
Experimental: The compounds of Examples 2, 4, 5, 12 and 16 were used as test compounds.
A test compound suspended in 0.5% methylcellulose (2.5 mg/mL) was orally administered at 10 mL/kg to male ICR mice (6 week-old, three animals in a group). At 12 hours after the administration, the blood of the mice was collected, and the concentrations of the test compound in the serum were measured by HPLC.

[3] = Single-dose oral toxicity study in mice; assay type: in vivo; conditions: male ICR mice, suspension in 0.5% methylcellulose, conditions observed on the next day
Experimental: (§7) The compounds of Examples 2, 4 and 12 were used as test compounds.
10 mL/kg of a test compound suspended in 0.5% methylcellulose was orally administered to male ICR mice (6 week-old, one animal in a group).
On the next day after the administration, the conditions of the mice were observed.

[4] = test system: bone marrow polychromatic erythrocytes; test: In vivo micronucleus study in mice; conditions: male ICR mice, oral twice at 24 hour interval, bone marrow 24 hours after final administration, highest dose group with all animals alive
Experimental: as §7
A test compound suspended in 0.5% methylcellulose was orally administered to male ICR mice (8 week-old, three animals in a group) twice at a 24 hour interval. To a control group, 0.5% methylcellulose was orally administered in a similar manner.
At 24 hours after the final administration, the mice in the highest dose group in which all the animals were alive were killed by exsanguination under ether anesthesia, and one thigh bone was collected from each animal. After cutting the collected thigh bone at the proximal end, bone marrow cells were washed out with fetal calf serum to a centrifuge tube using a disposable syringe, and after centrifugation (1000 rpm, 5 minutes, HITACHI 05PR-22), a part of the supernatant was discarded to obtain a suspension of bone marrow cells. This suspension was smeared on a slide glass, and then dried followed by methanol fixation to prepare a sample.
The sample was observed by acridine orange staining.
The sample of which frequency of MNPCE exceeds 0.5% was judged positive.
Frequency of MNPCE (%)=(MNPCE number/Observed PCE number)×100

[5] = test system: HIV-1 (JRCSF); test: Anti-HIV activity (Test Example 1-2): infected MaRBLE cells seeded on plate containing drug solution, luciferase readout after 7 days; assay type: cell-based; conditions: Human immunodeficiency virus 1, 168 h, MaRBLE cells infected with HIV-1 (JRCSF), 7 days culture, firefly luciferase, FORECAST linear regression (Excel)
Experimental: as §1, §2
A plate containing a drug solution was made by dispensing a fresh culture medium or an appropriately diluted test compound to a 96-well plate.
MaRBLE cells were suspended in RPMI1640 containing 10% FCS (fetal calf serum) and penicillin/streptomycin. After infected with HIV-1 (JRCSF), the cells were seeded on the above-described plate containing a drug solution ([…] cells/well). As a control group, the same number of uninfected cells were seeded.
After culturing at 37° C. under 5% CO2 for 7 days, an intracellular luciferase activity was measured using Dual-Glo Luciferase assay system (Promega).
as §3, §4, §5, §6
The IC50 of the compound was calculated by plotting the concentration with the logarithm and by plotting the virus growth rate with a real number, using the FORECAST function (linear regression technique) of Microsoft Office Excel 2003.

| Structure (SMILES) | IC50 [1] [nM] | concentration at 12 h [2] [ng/mL] | dose at which the compound showed good safety (single oral dose) [3] [mg/kg] | micronucleus test result (frequency of MNPCE exceeding 0.5% judged positive) [4] | IC50 [5] [nM] |
| --- | --- | --- | --- | --- | --- |
| Cc1noc(C)c1-c1ccc2c(=O)cc(C)n(-c3cc(N)c(F)cc3F)c2c1 [Example 2, 1-(5-amino-2,4-difluorophenyl)-7-(3,5-dimethylisoxazol-4-yl)-2-methyl-1,4-dihydro-4-oxoquinoline] | 1.4 | ≥ 500 | 2000 | negative | – |
| Cc1noc(C)c1-c1ccc2c(=O)cc(C)n(-c3cc(N)c(F)cc3F)c2n1 [Example 4, 1-(5-amino-2,4-difluorophenyl)-7-(3,5-dimethylisoxazol-4-yl)-2-methyl-1,4-dihydro-4-oxo-1,8-naphthyridine] | 0.38 | ≥ 500 | 750 | negative | – |
| Cc1noc(C)c1-c1ccc2c(=O)cc(C)n(-c3cc(N)c(F)c(F)c3F)c2n1 [Example 12, 1-(5-amino-2,3,4-trifluorophenyl)-7-(3,5-dimethylisoxazol-4-yl)-2-methyl-1,4-dihydro-4-oxo-1,8-naphthyridine] | – | ≥ 500 | 1000 | negative | 1.9 |
